In general, IC50 refers to the point on the concentration scale where inhibition reaches its midpoint.

Values joined by “and” are separate entries in the source; they are usually repeats but may differ in a detail not shown here. Equal entries are not always repeated. Where two headings read alike, the source gives them in different places.

The subject of one series is COX-2. The series can be described thus: COX-2 protein (Western blot) and mRNA (RT real-time PCR) in A549 cells. In kind it is cell-based, human. As to the method: For reverse-transcriptase real-time PCR, RNA was isolated from cells or tissue, using the TRIzol reagent (GIBCO Invitrogen Corp., Carlsbad, Calif.), as directed by the manufacturer. The RNA concentration and integrity were assessed using an Agilent 2100 Bioanalyzer with an RNA 6000 nano LabChip (Agilent Technologies, Palo Alto, Calif.). Approximately 1 μg of total RNA was reverse transcribed using avian myeloblastosis virus reverse transcriptase (RT) in a 20 μL mixture containing deoxyribonucleotides, random hexamers and RNase inhibitor in RT buffer. Heating the RT reaction product at 95° C. terminated the reaction. For real-time polymerase chain reaction (PCR), 2 μL of the resultant cDNA was added to TaqMan Universal PCR Master Mix (Applied Biosystems, Foster City, Calif.) with a gene-specific primer/probe set (Applied Biosystems, Foster City, Calif.) and amplification was performed on an ABI 7000 Sequence Detection System. […] The results were quantified as Ct values, where Ct is defined as the threshold cycle of PCR at which amplified product is first detected, and expressed as the ratio of target/control (Relative Gene Expression).
Quiescent A549 lung cancer cells or tumor tissue cut into approximately 1-2 mm^2 size pieces were homogenized in phosphate-buffered saline (PBS; 50 mM NaPO4, pH=7.2, 100 mM NaCl). […] The protein concentration was measured by a modification of the Lowry method. […]

For series [1] the following is noted: breast cancer patients, 30 minutes following subcutaneous injection, n=3, Rodgers 2005, cited from earlier work.
The subject of a further series is A549 lung cancer cells. As to the kind of experiment: Serum-stimulated ^3H-thymidine incorporation, A549. In kind it is cell-based, human. The following applies: A549, 1% FBS, daily addition of 100 nM. For orientation: Incorporation of labelled thymidine or its analogues reports DNA synthesis.
A further series relates to SK-LU-1 cells. The series can be described thus: Gene array hybridization (Human Cancer 1.2 Atlas cDNA Expression Array) in SK-LU-1 cells. In kind it is cell-based. The note with it: SK-LU-1, 1% serum, 100 nM. As to the method:
Cells were incubated for 2 or 8 h, and total RNA was isolated using the Atlas Pure Total RNA Labeling System (Clontech Laboratories, Inc). The RNA concentration was quantified by UV spectroscopy and any degradation was assessed by ethidium bromide staining intensity of 28S and 18S ribosomal RNA following agarose gel electrophoresis. RNA isolated from seven different cell passages was pooled prior to gene array analysis to account for individual variability in gene regulation. Radiolabeled cDNA, prepared from the pooled RNAs using the Atlas system, was incubated with DNase to degrade any residual DNA and then hybridized to the Human Cancer 1.2 Atlas cDNA Expression Array (Clonetech Laboratories, Inc). This gene array set contains 1,176 characterized human cDNAs on positively-charged nylon membranes.

For series [2] the following is noted: rats, Strawn 1999, cited from earlier work.
The test system of series [3] is A549 human lung cancer cells. The series can be described thus: Hoechst 33342 staining for morphological features of apoptosis. The note with it: 100 nM, 4 h. In kind it is cell-based. From the text:
In one experiment, A549 human lung cancer cells were stained with Hoechst 33342 to visualize the morphological changes associated with apoptosis.

Series [4] is described as follows: Plasma Ang-(1-7) level after intravenous infusion in mice. In kind it is in vivo, mouse.
For series [5], the system named is ZR-75-1 breast cancer cells. In kind it is cell-based, human. As to the method: Unless otherwise stated, cells were grown in DMEM with 10% fetal bovine serum (FBS), […] in a humidified 37° C. incubator gassed with 5% CO2 and 95% room air. Cells were grown to subconfluence in either 24-well cluster plates or 100 mm dishes and made quiescent by treatment for 48 h with serum-depleted growth media, prior to the experiments outlined below to measure cell growth (^3H-thymidine incorporation), cell signaling or apoptosis.
[…] Subsequently, the cell monolayer was washed with cold phosphate-buffered saline (PBS; 50 mM NaPO4, 120 mM NaCl, pH=7.2). The adherent cells were precipitated with cold 10% TCA (4° C. for 30 min) and dissolved in 0.2% SDS in 0.1 N NaOH. Incorporated ^3H-thymidine was determined by liquid scintillation spectrometry, as previously described (Freeman, E. J. et al., Hypertension, 1996, 28:104-108). Growth inhibition was defined as a reduction in the amount of ^3H-thymidine incorporation as compared to the mitogen-stimulated controls.

The subject of series [6] is chorioallantoic membrane (CAM). As to the kind of experiment: Chorioallantoic membrane (CAM) assay of neovascularization. The class given is in vivo, chicken. Here is the method: Chicken eggs were incubated for four days in constant humidity at 37° C. […] The extent of neovascularization was quantified by counting branch points, as illustrated in FIG. 14 showing about a 50% reduction in branch points. No difference was found in the number of branch points between the two groups prior to treatment with Ang-(1-7).

Description for A549 lung cancer cells: Unless otherwise stated, cells were grown in DMEM with 10% fetal bovine serum (FBS), 100 μg/mL penicillin and 100 units/mL streptomycin in a humidified 37° C. incubator gassed with 5% CO2 and 95% room air. Cells were grown to subconfluence in either 24-well cluster plates or 100 mm dishes and made quiescent by treatment for 48 h with serum-depleted growth media, prior to the experiments outlined below to measure cell growth (^3H-thymidine incorporation), cell signaling or apoptosis.

Regarding `CC[C@H](C)[C@H](NC(=O)[C@H](Cc1ccc(O)cc1)NC(=O)[C@@H](NC(=O)[C@H](CCCNC(=N)N)NC(=O)[C@@H](N)CC(=O)O)C(C)C)C(=O)N[C@@H](Cc1c[nH]cn1)C(=O)N1CCC[C@H]1C(=O)O` [Ang-(1-7), Asp-Arg-Val-Tyr-Ile-His-Pro], the “COX-2 mRNA” value with COX-2 (100 nM, 2, 4 and 8 h) is “significant reduction”. For the same molecule, the COX-2 protein result with COX-2 (100 nM, 8-h treatment) was “marked decrease”. The “plasma Ang-(1-7)” value in series [1] (100 μg/kg/day) was 3209.5 pg/mL and 3.6 nM; in series [1], 49.43 pg/mL and 0.055 nM. For the same molecule, the “^3H-thymidine incorporation over time of treatment” value was “progressively reduced” with A549 lung cancer cells and “progressively reduced” in series [5] (ZR-75-1, 1% FBS, daily addition of 100 nM). Besides, in the series on SK-LU-1 cells, the “expression of MEK5, ERK1, p21/K-ras 2B” value was “reduced”. In addition, the “expression of p16^INK4a, menin, BAD, BAK, apoptotic protease activating factor 1” value in the series on SK-LU-1 cells is “upregulated”. Also, the “Ang-(1-7) in the circulation” value in [2] (24 μg/kg/h intravenous, 12 days, n=6-8, from 0.052±0.005) was 0.185 ± 0.046 nM. For the same molecule, the “tolerability: weight, blood pressure, heart rate” value in series [2] (24 μg/kg/hr) is “no change in weight, blood pressure, or heart rate”. The “morphological changes (Hoechst 33342)” value in series [3] was “typical morphological changes associated with stimulation of apoptosis”. Further, the “increase of plasma concentration over saline-infused animals” value in series [4] (24 μg/kg/h intravenous infusion, Ki-ras^G12C mice) turned out to be 5 fold. For the same molecule, the “plasma concentration of the heptapeptide” value in series [4] (24 μg/kg/h intravenous infusion, Ki-ras^G12C mice, 84 days, n=8, saline 38.7±11.45) turned out to be 0.20132 ± 0.099 ng/mL. In addition, the level at 2016 h in series [4] (Ki-ras^G12C, mouse, plasma, iv, 24 ug/kg/h, read-out: plasma concentration of the heptapeptide) is 0.201 ± 0.099 ng/mL. The molecule further displayed a level at time molar at 1728 h in series [4] (mouse, plasma, 24 ug/kg/h, 24 μg/kg/h intravenous, 72 days of infusion into mice, n=8, from 0.043±0.013) of 0.224 ± 0.11 nM. The molecule further yielded an IC50 in series [5] (48 h) of 0.02 nM. The maximal inhibition in series [5] (ZR-75-1) is on record as 37.2±6.1. Also, the “neovascularization, branch points” value in series [6] (10 nM, 48 hour incubation, n=4, control 58.0±3.6 (n=3)) amounted to 29.5±3.6 branch points. Further, the “reduction in branch points” value in series [6] (100 nM, 2-day incubation, FIG. 14) is recorded as approximately 50%.

The values are drawn from patent US20140296143A1, “Angiotensin-(1-7) As A Chemoprevention Agent” (Wake Forest Innovations, priority 2008, published 2014).
